This assay deals with SARS-CoV-2 pseudovirus (lentiviral vector, spike D614G). The assay is classed as cell-based. The conditions noted are these: read-out: IC50 pseudovirus entry (luciferase output).

As to `C#CCC(Cc1cnc2nc(N)nc(N)c2n1)c1ccc(C(=O)N[C@@H](CCC(=O)O)C(=O)O)cc1` (some centres unmarked) [Pralatrexate], the IC50 (commonly the point on the concentration scale where inhibition reaches its midpoint) came to 12.1 nM. Take `COc1cc(NCc2ccc3nc(N)nc(N)c3c2C)cc(OC)c1OC` [Trimetrexate]: the IC50 was found to be 225 nM.
